Holding throughout (format): in vivo, human
In assay [1] the test system is professional panel composed of 2 women and 2 men. The experiment in a line: Tasting of NaCl/ribonucleotide solutions by a professional panel (Example 4). The following applies: 10 ppm compound in 0.5% NaCl and 0.002% ribonucleotide mixture vs the same solution without compound. The procedure:
Three solutions were prepared: • A—a solution of 0.5% NaCl and 0.002% Ribonucleotide mixture, • B—a solution of 0.5% NaCl, 0.002% Ribonucleotide mixture and 10 ppm of 2-(4-ethylphenoxy)-N-(pyridin-2-ylmethyl)acetamide, • C—a solution of 0.5% NaCl, 0.002% Ribonucleotide mixture and 10 ppm of 2-(4-isopropylphenoxy)-N-(pyridin-2-ylmethyl)acetamide.
The samples were tasted by a professional panel composed of 2 women and 2 men aged between 30 and 60.

For assay [2], the system named is trained sensory panel composed of 20 women. Put plainly: Potato chips tasting by a trained sensory panel (Example 6). The procedure: Plain potato chips were prepared. • One part was flavoured with 1.2% sodium chloride (sample A). • One part was flavoured with 1.2% sodium chloride and 0.3% mono sodium glutamate (sample B). • One part was flavoured with 1.2% sodium chloride and 5 ppm 2-(2,3-dihydro-1H-inden-5-yloxy)-N-(pyridin-2-ylmethyl)acetamide (sample C).
The samples A, B and C were tasted by a trained sensory panel composed of 20 women aged between 30 and 60.

Assay [3] has as its system small group of flavourists (2 male, 2 female). Put plainly: Tomato soup tasting by flavourists (Example 5). As to conditions: tomato soup containing 2 ppm compound vs reference soup. As to the method:
A tomato soup mix was prepared from 9.4 g of sodium chloride, 1 g of mono sodium glutamate, 0.08 g ribonucleotides (ex yeast), 32 g of tomato powder (ex Spreda), 25.1 g of glucose, 21 g of starch (Ultrasperse® 5 ex National Starch), 5 g of palm fat powder, 3 g of yeast powder, 1 g of onion powder, 0.15 g of carrot powder, 0.05 g of ground white pepper, 0.3 g celery extract powder, 0.05 g of ground laurel leaf powder, and 1.85 g of sucrose.
25 g of the well mixed ingredients was added to 250 g of boiling water and stirred until completely dissolved.
The reference soup was compared with a batch of the same soup containing 2 ppm of 2-(2,3-dihydro-1H-inden-5-yloxy)-N-(pyridin-2-ylmethyl)acetamide.

For assay [4], the system named is professional panel composed of 2 women and 3 men. Put plainly: Tasting of NaCl/MSG/ribonucleotide solutions by a professional panel (Example 3). The following applies: solution B (0.5% NaCl, 0.05% MSG, 0.010% ribonucleotide mixture, 2 ppm compound) vs solution A (0.5% NaCl, 0.15% MSG, 0.025% ribonucleotide mixture). As to the method:
Two solutions were prepared: • A—a solution of 0.5% NaCl, 0.15% MSG and 0.025% Ribonucleotide mixture, • B—a solution of 0.5% NaCl, 0.05% MSG, 0.010% Ribonucleotide mixture and 2 ppm of 2-(2,3-dihydro-1H-inden-5-yloxy)-N-(pyridin-2-ylmethyl)acetamide.
The samples were tasted by a professional panel composed of 2 women and 3 men aged between 30 and 60.

Assay [5] relates to small group of flavourists (2 male, 2 female). Put plainly: Diluted soy sauce tasting by flavourists (Example 7). The following applies: sample A: Kikkoman soy sauce diluted 10 times, 1.5 ppm compound. As to the method: Kikkoman® soy sauce was diluted 10 times with tap water. One part of the base soy sauce was taken as the reference. To another part (called sample A) 1.5 ppm of 2-(2,3-dihydro-1H-inden-5-yloxy)-N-(pyridin-2-ylmethyl)acetamide was added. To a third part (called sample B) 0.5 ppm of 2-(2,3-dihydro-1H-inden-5-yloxy)-N-(pyridin-2-ylmethyl)acetamide and 1 ppm of 1-(2-hydroxy-4-methoxyphenyl)-3-(pyridin-2-yl)propan-1-one were added.

The subject of assay [6] is professional panel composed of 2 women and 3 men. Put plainly: Tasting of NaCl solutions by a professional panel (Example 2). As to the method: Two solutions were prepared: • A—a solution of 0.3% NaCl and 0.05% MSG, • B—a solution of 0.3% NaCl and 1 ppm of 2-(2,3-dihydro-1H-inden-5-yloxy)-N-(pyridin-2-ylmethyl)acetamide.
The samples were tasted by a professional panel composed of 2 women and 3 men aged between 30 and 60. The panel agreed that both solutions tasted umami.

[7] abbreviates: solution B (0.3% NaCl, 1 ppm compound) vs solution A (0.3% NaCl, 0.05% MSG).

Turning to `CC(C)c1ccc(OCC(=O)NCc2ccccn2)cc1` [2-(4-isopropylphenoxy)-N-(pyridin-2-ylmethyl)acetamide], the “umami strength compared with solution A” value in assay [1] is on record as “stronger umami strength”.

As to `O=C(COc1ccc2c(c1)CCC2)NCc1ccccn1` [2-(2,3-dihydro-1H-inden-5-yloxy)-N-(pyridin-2-ylmethyl)acetamide], in assay [2] (sample C (1.2% sodium chloride, 5 ppm compound) vs sample A (1.2% NaCl) and sample B (1.2% NaCl, 0.3% MSG)), the panel preference result was “preferred over the other two samples”. For the same compound, the taste description entry in assay [2] (sample C: 1.2% sodium chloride and 5 ppm compound) is given as “salty, umami, long lasting, savory”. Besides, in assay [3], the “complexity of taste compared with base soup” value is on record as “tasted more complex” and the “umami taste compared with base soup” value is given as “more umami”. For the same compound, in assay [4], the “umami strength compared with solution A” value is “equal umami strength”. In assay [5], the “complexity compared with base soy sauce” value is “more complex”; the “umami and sweet taste compared with base soy sauce” value was “more umami and slightly more sweet”. In addition, in assay [6] (setting [7]), the “further taste notes compared with solution A” value is “more succulence and sweetness and had more lingering notes”; the “umami strength compared with solution A” value was “slightly stronger umami”. Besides, the “umami taste of solution” value in assay [6] (solution B: 0.3% NaCl and 1 ppm compound) is “tasted umami”.

Turning to `CCc1ccc(OCC(=O)NCc2ccccn2)cc1` [2-(4-ethylphenoxy)-N-(pyridin-2-ylmethyl)acetamide], the “umami strength compared with solution A” value in assay [1] was “stronger umami strength”.

For `N[C@@H](CCC(=O)O)C(=O)[O-].[Na+]` [MSG, mono sodium glutamate, reference compound], in assay [2] (sample B: 1.2% sodium chloride and 0.3% mono sodium glutamate), the taste description entry was “salty and umami”. Also, the “umami taste of solution” value in assay [6] (solution A: 0.3% NaCl and 0.05% MSG) is reported as “tasted umami”.

The record behind these values is patent publication US9573898B2, “Pyridine derivates and their use as Umami tastants” (Givaudan S.A., priority 2011, dated 2017).
